For one data set, the system named is O. ochengi females. Put plainly: microbe, parasite or virus in culture. More on the design: species or system Onchocerca ochengi. To be noted: for LC50: Onchocerca ochengi, 48 h; for Selectivity Index (SI) O. ochengi Females: SI = CC50 on Caco-2/LC50 on worm. As for the experimental part: The adult female worms were isolated by digestion of the nodules with collagenase at 37 °C. The female worms were cultured in a CO2-incubator [67]. For anthelmintic activity, they were incubated with the crude extracts, fractions and pure compounds.
(§1) Adult worms (six individuals per well for males and one per well for the female) and Mf were washed twice and were subsequently transferred to RPMI-1640 medium supplemented with L-glutamine, 100 U/mL penicillin and 100 µg/mL streptomycin and incubated at 37 °C in 24-well plates (96-well plate for Mf) with different concentrations of the drugs tested. Worm mortality was checked by observation under the binocular microscope after 48 h. After shaking, immotile and fully-elongated worms were considered to be dead. All tests were done in three independent triplicate determinations.

A further data set concerns O. ochengi microfilariae. Put plainly: microbe, parasite or virus in culture. More on the design: species or system Onchocerca ochengi. To be noted: for LC50: Onchocerca ochengi, 48 h; for Selectivity Index (SI) O. ochengi Microfilariae: SI = CC50 on Caco-2/LC50 on worm. As for the experimental part: Microfilariae were isolated as describe by Cho-Ngwa et al. and Ndjonka et al.. About 10 skin snips were obtained from different locations of the skin. The skin snips were then incubated at 37 °C in PBS to let Mf emerge. The highly motile Mf were concentrated by centrifugation at 400× g for 10 min and quantified. The Mf were incubated at 37 °C with the crude extract, fractions and pure compounds.
as §1

Data set [1] can be described thus: In vitro cytotoxicity (MTT) and CC50 determination. The format is cell-based. To be noted: human; for CC50 at 48 h: Caco-2, CC50 after 48 h calculated in µM, read-out: Cytotoxicity CC50, Caco-2 (in brackets) (converted); for CC50 at 72 h: Caco-2, MTT, read-out: Cytotoxicity, means CC50 ± SD, Caco-2. As for the experimental part: Cell culture: […] cells at Passage 70 were kindly provided by Prof. Hensel, Institute of Pharmaceutical Biology and Phytochemistry, University of Münster, and were cultured as previously describe by Zumdick et al..
Cytotoxicity test: The cytotoxicity assays were performed according to the method of Rahman et al.. Briefly, 1.5 × 10^4 viable cells/well were seeded in a 96-well plate and incubated for 24 to 48 h. […] DMEM samples were used as the negative control. […] The medium was removed, and formazan, generated by the activity of dehydrogenases, was solubilized with 70 µL of acidified isopropanol (0.4 M HCl). The amount of MTT-formazan that is directly proportional to the number of living cells was determined by measuring the optical density (OD) at 540 nm using a spectrophotometer. All controls used were treated equally. As control and to determine 100% growth, Caco-2 cells were grown in the absence of drugs so as to calculate cell viability. All determinations were performed in triplicate. […] The selectivity index (SI) values were calculated as the ratio: SI = CC50 of drug on Caco2/LC50 of drug on worm.

For data set [2], the system named is C. elegans CB211 (lev-1(e211) IV). Briefly: microbe, parasite or virus in culture. As to conditions: Caenorhabditis elegans, 48 h. As for the experimental part: (§2) All strains were obtained from the Caenorhabditis Genetic Centre (CGC, Minneapolis, MN, USA). Strains were maintained at 20 °C on nematode growth medium (NGM). All worms were age-synchronized and obtained from eggs that were isolated by bleaching.
(§3) Young adult (L4 stage) worms were used to assess drug lethality. Monitored endpoint was 48 h mortality. Tests were performed in 24-well plates. Five hundred (500) microliters of test solution, which is M9-buffer (3 g KH2PO4, 6 g Na2HPO4, 5 g NaCl, 0.25 g MgSO4.7H2O, in 1 L of water after been autoclaved supplemented with 2% glucose, 0.5% cholesterol), were distributed in 24-well plates. The volume of M9-buffer equivalent to the drug to be added for each drug final concentration (in each test, three to six concentrations were used) was removed. Untreated worms in M9-buffer were used as negative control. […] Crude extract fraction (stock solution at 100 mg/mL) and pure compound (stock solution at 100 mg/mL) previously dissolved in M9-buffer were then added in well plates at increasing concentration (varying from 0 to 1000 or 1500 µg/mL for extract and fractions; 0 to 100 or 150 µg/mL). The young adult (10 to 15 ± 2) from the axenic culture (without food source) were then added at the test solution. […] Treatments were replicated three times.

The subject of a further data set is C. elegans N2 Bristol WT. Put plainly: microbe, parasite or virus in culture. As to conditions: for LC50: Caenorhabditis elegans, 48 h; for Selectivity Index (SI) C. elegans Wild Type: SI = CC50 on Caco-2/LC50 on worm. As for the experimental part: as §2, §3
For data set [3], the system named is C. elegans ZZ16 (lev-9(x16) X). Briefly: microbe, parasite or virus in culture. To be noted: Caenorhabditis elegans, 48 h. On the procedure: as §2, §3
The test system of another data set is O. ochengi males. Put plainly: microbe, parasite or virus in culture. To be noted: for LC50: Onchocerca ochengi, 48 h; for Selectivity Index (SI) O. ochengi Males: SI = CC50 on Caco-2/LC50 on worm. More on the design: species or system Onchocerca ochengi.
Text: The adult male worms were isolated as previously describe by Ndjonka et al. from fresh pieces of cattle skin (cow-udder) with palpable nodules obtained from the communal slaughter house of Ngaoundere in the Adamawa region of Cameroon. Nodules removed from the skin were brought to the laboratory, washed, drained and sterilized with 70% ethanol for dissection. After dissection of nodules, O. ochengi were extracted, isolated and washed three times in sterile phosphate-buffered saline (PBS). To analyze the anthelmintic activity of extract, fractions and pure compounds, the worms were incubated at 37 °C.
as §1

The next data set concerns Wistar rats. Briefly: Acute oral toxicity on rats.
For data set [4], the system named is C. elegans CB3474 (ben-1(e1880) III). Briefly: microbe, parasite or virus in culture. As to conditions: Caenorhabditis elegans, 48 h. As for the experimental part: as §2, §3
In data set [5] the test system is C. elegans VC722 (glc-2(ok1047) I). Put plainly: microbe, parasite or virus in culture. To be noted: Caenorhabditis elegans, 48 h. As for the experimental part:
as §2, §3

The subject of data set [6] is C. elegans DA1316 (avr-14(ad1302) I avr-15(ad1051) glc-1(pk54)). Briefly: microbe, parasite or virus in culture. To be noted: Caenorhabditis elegans, 48 h. As for the experimental part: as §2, §3
Where [7] appears, read: read-out: LC50/48 h (in brackets).
The mark [8] stands for this setting: Phase 1, 10 mg/kg single oral dose.
The mark [9] stands for this setting: Phase 1, 100 mg/kg single oral dose.
Where [10] appears, read: Phase 1, 1000 mg/kg single oral dose.
Where [11] appears, read: Phase 2, 1500 mg/kg single oral dose.
Where [12] appears, read: Phase 2, 3000 mg/kg single oral dose.
Setting [13] is: Phase 2, 5000 mg/kg single oral dose.

Converted amounts (≈) assume the structure as drawn. Like-named read-outs stand apart in the source and are kept apart here.

Text for Wistar rats: Adult Wistar rats (Rattus norvegicus), males aged 7 to 8 weeks and weighing 150 to 200 g, used for the experiments were obtained from LANAVET (Laboratoire National Vétérinaire, Garoua, Cameroon). The rats were acclimatized for one week in the Veterinary Research Laboratory of the Institute of Agricultural Research for Development, Wakwa, Cameroon, before initiating experiments. Animals were housed in groups of three (one group for the negative control, six groups for each drug at the first phase, six others at the second phase) under ambient temperatures (23 °C ± 1 °C) with relative humidity 55 ± 5% and 12 h light/dark cycle in polycarbonate cages. […] They were monitored by a veterinarian for health status.
Acute oral toxicity (LD50, that is the dose that kills 50% of animals of the tested group) was measured using the method of the OECD guidelines for the testing of chemicals [56] following the European Community guidelines for the protection of animals used in experiments [69] and respecting the 3Rs (Replacement, Refinement, Reduction) [70]. Drugs in distilled water were orally administered separately at doses of 10 mg/kg, 100 mg/kg and 1000 mg/kg body weight. The negative controls were distilled water-administered rats. They were given to three groups of three rats each and observed for 24 h. […] The test was done at a single oral dose for each rat in a 5 mL/kg volume. The experimental animals were starved for 24 h before and 4 h after treatment. […] The appearance of toxic symptoms, such as behavioral changes, locomotion, convulsions and mortality, was observed and recorded. Animals were observed constantly for the first 30 min after administration and, thereafter, every 4 h up to 24 h and, subsequently, once a day for up to 14 days.

On to `c1ccc([C@H]2CN3CCSC3=N2)cc1` [Levamisole, reference compound], for which the LC50 with O. ochengi females (read-out: LC50/48 h) was 2.1 ± 0.1 µg/mL; in the data set on O. ochengi females (setting [7]) it was 10.2 µM; with O. ochengi microfilariae (read-out: LC50/48 h), 1 ± 0.3 µg/mL; in the data set with O. ochengi microfilariae (setting [7]), 5.1 µM; in data set [2] (read-out: LC50/48 h), > 100 µg/mL; with C. elegans N2 Bristol WT (read-out: LC50/48 h) it was 1.4 ± 0.2 µg/mL. The LC50 was 7.2 µM with C. elegans N2 Bristol WT (setting [7]), > 100 µg/mL in data set [3] (read-out: LC50/48 h), 1 ± 1 µg/mL in the data set on O. ochengi males (read-out: LC50/48 h) and 5.1 µM in the data set with O. ochengi males (setting [7]). The “Selectivity Index (SI) O. ochengi Females” value in the data set with O. ochengi females came to 13.0. The “Selectivity Index (SI) O. ochengi Microfilariae” value with O. ochengi microfilariae is 27.3. The CC50 at 48 h in data set [1] was 31.2 µM. In addition, the CC50 at 72 h in data set [1] turned out to be 27.3 ± 0.8 µg/mL (≈ 134 µM). Besides, the “Selectivity Index (SI) O. ochengi Males” value in the data set with O. ochengi males is 27.3.
Consider `O=C(O[C@H]1Cc2c(O)cc(O)cc2O[C@@H]1c1ccc(O)c(O)c1)c1cc(O)c(O)c(O)c1` [CG, (+)-catechin-3-O-gallate], for which the LC50 in the data set on O. ochengi females (read-out: LC50/48 h) was 4.5 ± 0.3 µg/mL; in the data set on O. ochengi females (setting [7]), 10.2 µM; in the data set on O. ochengi microfilariae (read-out: LC50/48 h), 4.2 ± 0.1 µg/mL; in the data set on O. ochengi microfilariae (setting [7]), 9.4 µM; in [4] (read-out: LC50/48 h), 95.2 ± 0.3 µg/mL; in data set [4] (setting [7]), 215 µM. Also, the LC50 in data set [5] (read-out: LC50/48 h) is 91.8 ± 0.3 µg/mL; in [5] (setting [7]), 208 µM; in [2] (read-out: LC50/48 h), 96.4 ± 0.1 µg/mL; in [2] (setting [7]), 218 µM; in data set [6] (read-out: LC50/48 h) it was 96.3 ± 0.3 µg/mL; in data set [6] (setting [7]), 218 µM. Further, the LC50 was 90.6 ± 0.07 µg/mL in the data set on C. elegans N2 Bristol WT (read-out: LC50/48 h); 205 µM in the data set with C. elegans N2 Bristol WT (setting [7]); 95.3 ± 0.1 µg/mL in [3] (read-out: LC50/48 h); 215 µM in data set [3] (setting [7]); 7.6 ± 0.2 µg/mL in the data set on O. ochengi males (read-out: LC50/48 h); 17.2 µM in the data set on O. ochengi males (setting [7]). Moreover, the “Selectivity Index (SI) O. ochengi Females” value with O. ochengi females was found to be 14.7. In the data set on O. ochengi microfilariae, the “Selectivity Index (SI) O. ochengi Microfilariae” value is reported as 15.8. For the same molecule, the CC50 at 48 h in data set [1] was 150 µM. Moreover, the CC50 at 72 h in [1] is 66.3 ± 0.6 µg/mL (≈ 150 µM). Also, the “Mortality of rats: rat number end/start” value with Wistar rats (setting [8]), in the data set on Wistar rats (setting [9]), in the data set on Wistar rats (setting [10]), with Wistar rats (setting [11]), with Wistar rats (setting [12]) and in the data set with Wistar rats (setting [13]) was 0/3 in each case. Moreover, the “Selectivity Index (SI) C. elegans Wild Type” value in the data set on C. elegans N2 Bristol WT amounted to 0.7. For the same molecule, the “Selectivity Index (SI) O. ochengi Males” value in the data set with O. ochengi males was found to be 8.7.
For `CCCSc1ccc2nc(NC(=O)OC)[nH]c2c1` [Albendazole, reference compound], the LC50 with O. ochengi females (read-out: LC50/48 h) is 1 ± 0.2 µg/mL; in the data set on O. ochengi females (setting [7]) it was 3.9 µM; with O. ochengi microfilariae (read-out: LC50/48 h), 2.1 ± 0.5 µg/mL; in the data set with O. ochengi microfilariae (setting [7]), 7.8 µM; in [4] (read-out: LC50/48 h) it was > 100 µg/mL; in the data set on C. elegans N2 Bristol WT (setting [7]) it was 26.4 µM. The LC50 in the data set on O. ochengi males (read-out: LC50/48 h) was 4.2 ± 0.3 µg/mL; with O. ochengi males (setting [7]), 15.7 µM. Also, the “Selectivity Index (SI) O. ochengi Females” value in the data set with O. ochengi females was 29.4. The “Selectivity Index (SI) O. ochengi Microfilariae” value in the data set on O. ochengi microfilariae amounted to 14. Further, in data set [1], the CC50 at 48 h is 111 µM. Further, in [1], the CC50 at 72 h worked out at 29.4 ± 0.5 µg/mL (≈ 111 µM). Moreover, the “Mortality of rats: rat number end/start” value in the data set with Wistar rats (setting [8]), in the data set with Wistar rats (setting [9]), in the data set on Wistar rats (setting [10]), in the data set with Wistar rats (setting [11]), in the data set with Wistar rats (setting [12]) and in the data set with Wistar rats (setting [13]) was 0/3 throughout. For the same molecule, the “Selectivity Index (SI) C. elegans Wild Type” value in the data set with C. elegans N2 Bristol WT amounted to 4.1. Besides, the “Selectivity Index (SI) O. ochengi Males” value in the data set on O. ochengi males is 7.

The CC50 is the concentration giving 50% cytotoxicity.

The values are drawn from article PMC6154738, “Anti-Onchocerca and Anti-Caenorhabditis Activity of a Hydro-Alcoholic Extract from the Fruits of Acacia nilotica and Some Proanthocyanidin Derivatives” (Molecules : A Journal of Synthetic Chemistry and Natural …, 2017).
